The structures appear in SMILES notation.

For orientation: melting point means the temperature of the solid-liquid transition. Compound `O=C(Nc1c(Cl)cncc1Cl)c1cc(OC2CCCC2)c(OC(F)F)cn1` [Compound GO, N-(3,5-dichloropyridin-4-yl)-4-cyclopentyloxy-5-difluoromethoxypyridine-2-carboxamide] displayed a melting point of 131 to 132 °C.

Regarding `Cc1ncc(C(=S)Nc2c(Cl)cncc2Cl)cc1OC(C)C` [Compound CV, N-(3,5-dichloro-4-pyridyl)-5-isopropyloxy-6-methylthionicotinamide], the melting point was 167 to 168 °C. Take `COc1ncc(C(=O)Nc2c(F)cncc2F)cc1OC1CCCC1` [Compound CR, 5-cyclopentyloxy-N-(3,5-difluoropyrid-4-yl)-6-methoxynicotinamide]: the melting point lay in the range of 210 to 211 °C.

Compound `COc1cnc(C(=O)Nc2c(Cl)cncc2Cl)cc1OC1CCCC1` [DA, N-(3,5-dichloropyrid-4-yl)-4-cyclopentyloxy-5-methoxypyridine-2-carboxamide] came in with a melting point of 129 to 130 °C. `COc1ccc(C(=O)Nc2ccccc2S(C)(=O)=O)cc1OC1CCCC1` [BM, N-(2-methylsulfonylphenyl)-3-cyclopentyloxy-4-methoxybenzamide] came in with a melting point of 119 to 121 °C.

For `COc1ccc(C(=O)Nc2c(Cl)cc(NC(C)=O)cc2Cl)cc1OC1CCCC1` [BU, N-(4-acetylamino-2,6-dichlorophenyl)-3-cyclopentyloxy-4-methoxybenzamide], the melting point is 250 to 252 °C. For `COc1ccc(/C=C/c2c(Cl)cccc2Cl)cc1OC1CCCC1` [Compound GF, trans-1-(3-cyclopentyloxy-4-methoxyphenyl)-2-(2,6-dichlorophenyl)ethene], the melting point is 47 to 49 °C. Then `COc1ncc(C(=O)Nc2c(Cl)cncc2Cl)cc1OC1CCCC1` [Compound CO, 5-cyclopentyloxy-N-(3,5-dichloropyrid-4-yl)-6-methoxynicotinamide], with 182 to 183 °C. In turn, `CSc1ncc(C(=O)Cc2c(Cl)cncc2Cl)cc1OC(C)C` [Compound CW, 2-(3,5-dichloro-4-pyridyl)-1-(5-isopropyloxy-6-methylthio-3-pyridyl)ethanone] gave a melting point of 124 to 125 °C. Turning to `COc1ccc(C(=O)Nc2c(Cl)cncc2Cl)cc1OC1C=CCC1` (racemic) [BI, (±)-N-(3,5-dichloropyrid-4-yl)-3-cyclopent-2-enyloxy-4-methoxybenzamide], the melting point was in the range of 177 to 178 °C. Then `COc1cc(F)c(C(=O)Nc2c(Cl)cncc2Cl)cc1OC1CCCC1` [A, N-(3,5-dichloropyrid-4-yl)-3-cyclopentyloxy-6-fluoro-4-methoxybenzamide], with 143 to 144 °C; and `COc1ccc(C(=O)Nc2c(Cl)cc(C=O)cc2Cl)cc1OC1CCCC1` [BY, N-(2,6-dichloro-4-formylphenyl)-3-cyclopentyloxy-4-methoxy-benzamide], with 96 to 98 °C; and `COc1cnc(C(=O)Cc2c(Cl)cncc2Cl)cc1OC1CCCC1` [Compound FG, 1-(4-cyclopentyloxy-5-methoxypyridin-2-yl)-2-(3,5-dichloropyridin-4-yl)ethanone], with 132 °C. On to `COc1ccc(C(=O)C(=O)c2ccncc2)cc1OC1CCCC1` [Compound GK, 1-(3-cyclopentyloxy-4-methoxyphenyl)-2-(pyrid-4-yl)ethane-1,2-dione], for which the melting point was in the range of 117 to 119 °C. For the compound `COc1c[n+]([O-])c(C(=O)Nc2c(Cl)cncc2Cl)cc1OCC1CC1` [FZ, N-(3,5-dichloropyridin-4-yl)-4-cyclopropylmethoxy-5-methoxy-1-oxidopyridinium-2-carboxamide], the melting point was in the range of 178 to 180 °C. `Cc1ncc(C(=S)Nc2c(Cl)cncc2Cl)cc1OC1CCCC1` [Compound CU, 5-cyclopentyloxy-N-(3,5-dichloro-4-pyridyl)-6-methylthionicotinamide] showed a melting point of 144 to 145 °C. `COc1ccc(C(=O)Nc2c(Cl)cncc2Cl)cc1OC1CC=CC1` [BK, N-(3,5-dichloropyrid-4-yl)-3-cyclopent-3-enyloxy-4-methoxybenzamide] displayed a melting point of 193 to 195 °C. Turning to `COc1ncc(C(=O)Cc2c(Cl)cncc2Cl)cc1OC1CCCC1` [Compound CT, 1-(5-cyclopentyloxy-6-methoxypyridin-3-yl)-2-(3,5-dichloropyrid-4-yl)ethanone], the melting point is 118 to 119 °C. Regarding `COc1ncc(C(=O)Nc2c(C)noc2C)cc1OC1CCCC1` [Compound CQ, 5-cyclopentyloxy-N-(3,5-dimethylisoxazol-4-yl)-6-methoxynicotinamide], the melting point fell in the range of 139 to 140 °C. Consider `COc1ncc(C(=O)Nc2c(Cl)cccc2Cl)cc1OC1CCCC1` [Compound CP, N-(2,6-dichlorophenyl)-5-cyclopentyloxy-6-methoxynicotinamide], for which the melting point fell in the range of 145 to 146 °C. `COc1ccc(C(=O)Nc2c(Cl)cc(CO)cc2Cl)cc1OC1CCCC1` [BW, N-(2,6-dichloro-4-hydroxymethylphenyl)-3-cyclopentyloxy-4-methoxybenzamide] returned a melting point of 174 to 176 °C. Next, `COc1ccc(C(=O)Nc2c(Cl)cncc2Cl)nc1OC1CCCC1` [Compound CS, 6-cyclopentyloxy-N-(3,5-dichloropyrid-4-yl)-5-methoxypyridine-2-carboxamide]: 164 to 166 °C. Compound `COc1cc(F)c(C(=O)Cc2c(Cl)cncc2Cl)cc1OC1CCCC1` [Compound CH, 2-(3,5-dichloropyrid-4-yl)-1-(3-cyclopentyloxy-6-fluoro-4-methoxyphenyl)ethanone] showed a melting point of 115 to 116.5 °C. `COc1ccc(C(=O)Nc2c(Cl)cc(N)cc2Cl)cc1OC1CCCC1` [BS, N-(2,6-dichloro-4-aminophenyl)-3-cyclopentyloxy-4-methoxybenzamide] gave a melting point of 170 to 172 °C.

The values above are taken from patent US8129537B2, “Compounds as PDE IV and TNF inhibitors” (Rhone-Poulenc Rorer Limited, priority 1993, dated 2012).
